Measurements from ChEMBL document CHEMBL5584205 (Bioorg Med Chem Lett, 2024).
Activity calls are given as the source filed them. The rule behind the calls is not given here.

How the values were obtained:
[1] = Inhibition of elastase release in fMLP/CB-induced human neutrophils by cell based assay; assay type: functional; details: Neutrophil
[2] = target: T1, Neutrophil elastase (Homo sapiens, UniProt P08246); assay: Inhibition of human neutrophil elastase by enzymatic assay
T1 sequence (P08246 whole entry): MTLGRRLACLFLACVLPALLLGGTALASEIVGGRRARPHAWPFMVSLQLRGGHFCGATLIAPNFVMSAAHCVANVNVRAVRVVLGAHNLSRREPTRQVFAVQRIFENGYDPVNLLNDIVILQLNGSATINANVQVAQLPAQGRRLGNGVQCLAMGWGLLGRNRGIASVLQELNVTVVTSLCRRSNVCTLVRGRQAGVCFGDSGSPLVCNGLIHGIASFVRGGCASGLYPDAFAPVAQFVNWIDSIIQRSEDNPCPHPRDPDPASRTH

[3] = tested on: Neutrophil; assay: Inhibition of O2 generation in fMLP/CB-induced human neutrophils by cell based assay; assay type: functional
[4] = target: T2, NAD-dependent protein deacetylase sirtuin-2 (Homo sapiens, UniProt Q8IXJ6); assay: Inhibition of SIRT2 (unknown origin) activity
T2 sequence (Q8IXJ6 whole entry): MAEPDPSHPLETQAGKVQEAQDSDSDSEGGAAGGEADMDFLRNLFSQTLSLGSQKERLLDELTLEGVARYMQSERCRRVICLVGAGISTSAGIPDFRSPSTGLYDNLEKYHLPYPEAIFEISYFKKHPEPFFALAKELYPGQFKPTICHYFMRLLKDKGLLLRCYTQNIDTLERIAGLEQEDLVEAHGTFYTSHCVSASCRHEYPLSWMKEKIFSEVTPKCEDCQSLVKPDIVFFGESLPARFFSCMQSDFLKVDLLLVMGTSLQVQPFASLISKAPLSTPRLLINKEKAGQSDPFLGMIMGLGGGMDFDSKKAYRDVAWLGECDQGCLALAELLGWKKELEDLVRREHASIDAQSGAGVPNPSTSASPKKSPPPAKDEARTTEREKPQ

[5] = target: T3, Myeloblastin (Homo sapiens, UniProt P24158); assay: Inhibition of PR3 (unknown origin) activity
T3 sequence (P24158 whole entry): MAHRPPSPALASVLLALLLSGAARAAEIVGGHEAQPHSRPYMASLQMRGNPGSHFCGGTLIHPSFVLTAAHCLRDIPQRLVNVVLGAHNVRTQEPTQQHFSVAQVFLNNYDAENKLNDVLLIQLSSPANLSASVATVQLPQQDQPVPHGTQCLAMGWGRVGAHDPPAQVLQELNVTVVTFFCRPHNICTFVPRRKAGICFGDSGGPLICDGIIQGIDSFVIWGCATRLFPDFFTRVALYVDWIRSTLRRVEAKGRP

[6] = species on record: Homo sapiens; assay: Inhibition of CG (unknown origin)

| SMILES | IC50 [1] | IC50 [2] | IC50 [3] | IC50 [4] | IC50 [5] | inhibition [6] |
| --- | --- | --- | --- | --- | --- | --- |
| COC(=O)[C@@H](NC(=O)c1ccccc1/N=C/c1c(O)ccc2ccccc12)c1ccccc1 | 3.84 µM | > 50 µM | 3.56 µM |  |  |  |
| O=C(N[C@H](C(=O)O)c1ccccc1)c1ccccc1/N=C/c1c(O)ccc2ccccc12 | > 10 µM | > 50 µM | 2.5 µM |  |  |  |
| O=C(N[C@H](Cc1ccccc1)C(=O)O)c1ccccc1/N=N/c1c(O)ccc2ccccc12 | 1.54 µM | 20.7 µM | 1.61 µM |  |  |  |
| COC(=O)[C@H](Cc1ccccc1)NC(=O)c1ccccc1/N=N/c1c(O)ccc2ccccc12 | > 10 µM | 31.2 µM |  |  |  |  |
| CC(NC(=O)c1ccccc1/N=N/c1c(O)ccc2ccccc12)c1ccccc1 (configuration not stated) | > 10 µM | 12.1 µM | > 10 µM |  |  |  |
| COC(=O)[C@H](NC(=O)c1ccccc1/N=N/c1c(O)ccc2ccccc12)c1ccccc1 | > 10 µM | 18.9 µM | > 10 µM |  |  |  |
| COC(=O)[C@@H](NC(=O)c1ccccc1/N=C/c1ccccc1O)c1ccccc1 | 8.73 µM | > 50 µM | > 10 µM |  |  |  |
| C[C@@H](NC(=O)c1ccccc1/N=C/c1c(O)ccc2ccccc12)C1CCCCC1 | > 10 µM | > 50 µM | > 10 µM |  |  |  |
| CC(NC(=O)c1ccccc1/N=C/c1ccccc1O)c1ccccc1 (configuration not stated) | > 10 µM | > 50 µM | 6.07 µM |  |  |  |
| COC(=O)[C@H](NC(=O)c1ccccc1/N=C/c1c(O)ccc2ccccc12)c1ccccc1 | 1.76 µM | 38.8 µM | 5.56 µM |  |  |  |
| O=C(N[C@H](C(=O)O)c1ccccc1)c1ncccc1/N=N/c1c(O)ccc2ccccc12 | 1.86 µM | 4.91 µM | 0.9 µM | 2.42 µM | 20.7 µM | inactive |
| COC(=O)[C@@H](NC(=O)c1ncccc1/N=N/c1c(O)ccc2ccccc12)c1ccccc1 | > 10 µM | 22.4 µM | > 10 µM |  |  |  |
| COC(=O)[C@@H](NC(=O)c1ccccc1/N=N/c1c(O)ccc2ccccc12)c1ccccc1 | > 10 µM | 18 µM | > 10 µM |  |  |  |
| COC(=O)[C@@H](Cc1ccccc1)NC(=O)c1ccccc1/N=C/c1c(O)ccc2ccccc12 | 1.59 µM | > 50 µM | 4.27 µM |  |  |  |
| CC(NC(=O)c1ccccc1NCc1c(O)ccc2ccccc12)c1ccccc1 (configuration not stated) | 6.44 µM | 26.2 µM | > 10 µM |  |  |  |
| CC(NC(=O)c1ccccc1/N=C/c1c(O)ccc2ccccc12)c1ccccc1 (configuration not stated) [SIRTINOL] | 1.92 µM | 24.5 µM | > 10 µM |  |  |  |
| COC(=O)[C@@H](Cc1ccccc1)NC(=O)c1ccccc1/N=N/c1c(O)ccc2ccccc12 | > 10 µM | 19.3 µM |  |  |  |  |
| COC(=O)[C@H](NC(=O)c1ccccc1/N=C/c1ccccc1O)c1ccccc1 | 4.98 µM | > 50 µM | 4.36 µM |  |  |  |
| O=C(N[C@@H](C(=O)O)c1ccccc1)c1ccccc1/N=N/c1c(O)ccc2ccccc12 | 2.36 µM | 20.4 µM | 1.12 µM |  |  |  |
| COC(=O)[C@H](Cc1ccccc1)NC(=O)c1ccccc1/N=C/c1c(O)ccc2ccccc12 | 2.09 µM | > 50 µM | 2.95 µM |  |  |  |
| O=C(N[C@H](C(=O)O)c1ccccc1)c1ccccc1/N=N/c1c(O)ccc2ccccc12 | 2.25 µM | 16.8 µM | 2.02 µM |  |  |  |
| O=C(N[C@@H](Cc1ccccc1)C(=O)O)c1ccccc1/N=N/c1c(O)ccc2ccccc12 | 1.07 µM | 21 µM | 1.31 µM |  |  |  |
